Data taken from US6737383B1, “Herbicidal oxadiazolidines” (priority 1999, dated 2004).

Tests used:
rape = experiment: Test E rape; format: in vivo, Brassica napus; details: Preemergence
deadnettle = experiment: Test E deadnettle; format: in vivo, Lamium amplexicaule; details: Postemergence
Procedure: (§1) Compounds evaluated in this test were formulated in a non-phytotoxic solvent mixture which included a surfactant and applied to plants that were in the 1- to 4-leaf stage (postemergence application). A mixture of sandy loam soil and greenhouse potting mix in a 60:40 ratio was used for the postemergence test.
(§2) Plantings of these crops and weed species were adjusted to produce plants of appropriate size for the postemergence test. All plant species were grown using normal greenhouse practices. Crop and weed species include annual bluegrass (Poa annua), blackgrass (Alopecurus myosuroides), black nightshade (Solanum nigra), chickweed (Stellaria media), common poppy (Papaver rhoeas), deadnettle (Lamium amplexicaule), downy brome (Bromus tectorum), field violet (Viola arvensis), galium (Galium aparine), green foxtail (Setaria viridis), Italian ryegrass (Lolium multiflorum), jointed goatgrass (Aegilops cylindrica), kochia (Kochia scoparia), lambsquarters (Chenopodium album), littleseed canarygrass (Phalaris minor), rape (Brassica napus), redroot pigweed (Amaranthus retroflexus), Russian thistle (Salsola kali), scentless chamomile (Matricaria inodora), spring barley (Hordeum vulgare), sugar beet (Beta vulgaris), sunflower (Helianthus annuus), ivyleaf speedwell (Veronica hederaefolia), spring wheat (Triticum aestivum), winter wheat (Triticum aestivum), wild buckwheat (Polygonum convolvulus), wild mustard (Sinapis arvensis), wild oat (Avena fatua), windgrass (Apera spica-venti) and winter barley (Hordeum vulgare).
(§3) Treated plants and untreated controls were maintained in a greenhouse for approximately 21 to 28 days, after which all treated plants were compared to untreated controls and visually evaluated. […] A dash response (-) means no test result.

littleseed canarygrass = experiment: Test E littleseed canarygrass; format: in vivo, Phalaris minor; details: Preemergence
green foxtail = experiment: Test E green foxtail; format: in vivo, Setaria viridis; details: Postemergence
Procedure: as §1, §2, §3

winter barley = experiment: Test E winter barley; format: in vivo, Hordeum vulgare; details: Postemergence
Procedure: as §1, §2, §3

sugar beet = experiment: Test E sugar beet; format: in vivo, Beta vulgaris; details: Preemergence
chickweed = experiment: Test E chickweed; format: in vivo, Stellaria media; details: Postemergence
Procedure: as §1, §2, §3

spring wheat = experiment: Test E spring wheat; format: in vivo, Triticum aestivum; details: Postemergence
Procedure: as §1, §2, §3

annual bluegrass = experiment: Test E annual bluegrass; format: in vivo, Poa annua; details: Preemergence
downy brome = experiment: Test E downy brome; format: in vivo, Bromus tectorum; details: Preemergence
wild mustard = experiment: Test E wild mustard; format: in vivo, Sinapis arvensis; details: Postemergence
Procedure, shortened: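 Greenhouse test: compounds in non-phytotoxic solvent with surfactant; for postemergence, sprayed on plants at 1- to 4-leaf stage grown in 60:40 sandy loam/potting mix. Injury rated visually against untreated controls after about 21 to 28 days.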

spring barley = experiment: Test E spring barley; format: in vivo, Hordeum vulgare; details: Postemergence
Procedure: as §1, §2, §3

redroot pigweed = experiment: Test C postemergence redroot pigweed; format: in vivo, Amaranthus retroflexus; details: 0 to 100 scale, 0 no effect, 100 complete control
Procedure: as §1, with “grown for various periods of time before treatment” for “in the 1- to 4-leaf stage”
(§4) Plantings of these crops and weed species were adjusted to produce plants of appropriate size for the postemergence test. All plant species were grown using normal greenhouse practices. Crop and weed species include arrowleaf sida (Sida rhombifolia), barnyardgrass (Echinochloa crus-galli), cocklebur (Xanthium strumarium), common ragweed (Ambrosia elatior), corn (Zea mays), cotton (Gossypium hirsutum), eastern black nightshade (Solanum ptycanthum), fall panicum (Panicum dichotomiflorum), field bindweed (Convolvulus arvensis), giant foxtail (Setaria faberii), hairy beggarticks (Bidens pilosa), ivyleaf morningglory (Ipomoea hederacea), johnsongrass (Sorghum halepense), ladysthumb smartweed (Polygonum persicaria), lambsquarters (Chenopodium album), large crabgrass (Digitaria sanguinalis), purple nutsedge (Cyperus rotundus), redroot pigweed (Amaranthus retroflexus), soybean (Glycine max), surinam grass (Brachiaria decumbens), velvetleaf (Abutilon theophrasti) and wild poinsettia (Euphorbia heterophylla).
(§5) Treated plants and untreated controls were maintained in a greenhouse for approximately 14, to 21 days, after which all treated plants were compared to untreated controls and visually evaluated. Plant response ratings, summarized in Table C, were based upon a 0 to 100 scale where 0 was no effect and 100 was complete control. A dash response (−) means no test result.

common ragweed = experiment: Test C postemergence common ragweed; format: in vivo, Ambrosia elatior; details: 0 to 100 scale, 0 no effect, 100 complete control
Procedure: as §1, with “grown for various periods of time before treatment” for “in the 1- to 4-leaf stage”
as §4, §5

large crabgrass = experiment: Test C postemergence large crabgrass; format: in vivo, Digitaria sanguinalis; details: 0 to 100 scale, 0 no effect, 100 complete control
Procedure, shortened: (§6)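 Scores (0 = no effect, 100 = complete control) come from visual comparison with untreated controls after about 14–21 days. Spray formulation was a non-phytotoxic solvent mixture including surfactant; plants grew in a 60:40 sandy loam–potting mix blend.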

purple nutsedge = experiment: Test C postemergence purple nutsedge; format: in vivo, Cyperus rotundus; details: 0 to 100 scale, 0 no effect, 100 complete control
Procedure: as §1, with “grown for various periods of time before treatment” for “in the 1- to 4-leaf stage”
as §4, §5

lambsquarters = experiment: Test C postemergence lambsquarters; format: in vivo, Chenopodium album; details: 0 to 100 scale, 0 no effect, 100 complete control
Procedure, shortened: as §6

[1] = Rate 125 g/ha, 0 to 100 scale (0 no effect, 100 complete control)
[2] = Rate 500 g/ha, 0 to 100 scale where 0 is no effect and 100 is complete control
[3] = Rate 250 g/ha, 0 to 100 scale (0 no effect, 100 complete control)
[4] = Rate 500 g/ha, 0 to 100 scale, 0 no effect, 100 complete control
[5] = Rate 250 g/ha, 0 to 100 scale where 0 is no effect and 100 is complete control

## CC(C)N(C(=O)n1oc(=O)n(C(C)C)c1=O)c1ccc(Cl)cc1 [Compound 114]
rape; [1]
  Plant response rating, Rape: 0
rape; Rate 250 g/ha, 0 to 100 scale
  Plant response rating, Rape: 20
rape; [2]
  Plant response rating, Rape: 50
deadnettle; Rate 125 g/ha, 0 to 100 scale
  Plant response rating, Deadnettle: 20
deadnettle; [3]
  Plant response rating, Deadnettle: 10
deadnettle; [4]
  Plant response rating, Deadnettle: 70
Littleseed canarygrass; [1]
  Plant response rating, LS canarygrass: 50
Littleseed canarygrass; Rate 250 g/ha, 0 to 100 scale
  Plant response rating, LS canarygrass: 60
Littleseed canarygrass; [2]
  Plant response rating, LS canarygrass: 80
Green foxtail; Rate 125 g/ha, 0 to 100 scale
  Plant response rating, Green foxtail: 20
Green foxtail; [3]
  Plant response rating, Green foxtail: 50
Green foxtail; [4]
  Plant response rating, Green foxtail: 90
Winter barley; Rate 125 g/ha, 0 to 100 scale
  Plant response rating, Barley (winter): 5
Winter barley; [3]
  Plant response rating, Barley (winter): 10
Winter barley; [4]
  Plant response rating, Barley (winter): 20
Sugar beet; [1]
  Plant response rating, Sugar beet: 20
Sugar beet; Rate 250 g/ha, 0 to 100 scale
  Plant response rating, Sugar beet: 40
Sugar beet; [2]
  Plant response rating, Sugar beet: 50
chickweed; Rate 125 g/ha, 0 to 100 scale
  Plant response rating, Chickweed: 10
chickweed; [3]
  Plant response rating, Chickweed: 0
chickweed; [4]
  Plant response rating, Chickweed: 10
Spring wheat; Rate 125 g/ha, 0 to 100 scale
  Plant response rating, Spring Wheat: 10
Spring wheat; [3]
  Plant response rating, Spring Wheat: 20
Spring wheat; [4]
  Plant response rating, Spring Wheat: 30
Annual bluegrass; [1]
  Plant response rating, Annual bluegras: 50
Annual bluegrass; Rate 250 g/ha, 0 to 100 scale
  Plant response rating, Annual bluegras: 50
Annual bluegrass; [2]
  Plant response rating, Annual bluegras: 60
Downy brome; [1]
  Plant response rating, Downy brome: 10
Downy brome; Rate 250 g/ha, 0 to 100 scale
  Plant response rating, Downy brome: 60
Downy brome; [2]
  Plant response rating, Downy brome: 50
Wild mustard; Rate 125 g/ha, 0 to 100 scale
  Plant response rating, Wild mustard: 75
Wild mustard; [3]
  Plant response rating, Wild mustard: 50
Wild mustard; [4]
  Plant response rating, Wild mustard: 70
Spring barley; Rate 125 g/ha, 0 to 100 scale
  Plant response rating, Spring Barley: 20
Spring barley; [3]
  Plant response rating, Spring Barley: 30
Spring barley; [4]
  Plant response rating, Spring Barley: 35

## CCn1c(=O)on(C(=O)N(c2ccccc2)C(C)C)c1=O [Compound 117]
Redroot pigweed; Rate 140 g/ha
  Plant response rating, Redroot pigweed: 0
Redroot pigweed; Rate 280 g/ha
  Plant response rating, Redroot pigweed: 0
Redroot pigweed; Rate 560 g/ha
  Plant response rating, Redroot pigweed: 0
Redroot pigweed; Rate 1120 g/ha
  Plant response rating, Redroot pigweed: 30
Common ragweed; Rate 140 g/ha
  Plant response rating Common ragweed: 0
Common ragweed; Rate 280 g/ha
  Plant response rating Common ragweed: 0
Common ragweed; Rate 560 g/ha
  Plant response rating Common ragweed: 20
Common ragweed; Rate 1120 g/ha
  Plant response rating Common ragweed: 50
Large crabgrass; Rate 140 g/ha
  Plant response rating Large crabgrass: 0
Large crabgrass; Rate 280 g/ha
  Plant response rating Large crabgrass: 20
Large crabgrass; Rate 560 g/ha
  Plant response rating Large crabgrass: 60
Large crabgrass; Rate 1120 g/ha
  Plant response rating Large crabgrass: 80
Purple nutsedge; Rate 140 g/ha
  Plant response rating, Purple nutsedge: 0
Purple nutsedge; Rate 280 g/ha
  Plant response rating, Purple nutsedge: 0
Purple nutsedge; Rate 560 g/ha
  Plant response rating, Purple nutsedge: 10
Purple nutsedge; Rate 1120 g/ha
  Plant response rating, Purple nutsedge: 80
lambsquarters; Rate 140 g/ha
  Plant response rating, Lambsquarters: 0
lambsquarters; Rate 280 g/ha
  Plant response rating, Lambsquarters: 0
lambsquarters; Rate 560 g/ha
  Plant response rating, Lambsquarters: 0
lambsquarters; Rate 1120 g/ha
  Plant response rating, Lambsquarters: 0

## CC(C)N(C(=O)n1oc(=O)n(C(C)C)c1=O)c1ccc(F)cc1 [Compound 131]
rape; [1]
  Plant response rating, Rape: 70
rape; Rate 250 g/ha
  Rape plant response rating (0 to 100 scale): 75
rape; [2]
  Plant response rating, Rape: 90
Redroot pigweed; Rate 140 g/ha
  Plant response rating, Redroot pigweed: 10
Redroot pigweed; Rate 280 g/ha
  Plant response rating, Redroot pigweed: 10
Redroot pigweed; Rate 560 g/ha
  Plant response rating, Redroot pigweed: 20
Redroot pigweed; Rate 1120 g/ha
  Plant response rating, Redroot pigweed: 30
Common ragweed; Rate 140 g/ha
  Plant response rating Common ragweed: 0
Common ragweed; Rate 280 g/ha
  Plant response rating Common ragweed: 0
Common ragweed; Rate 560 g/ha
  Plant response rating Common ragweed: 0
Common ragweed; Rate 1120 g/ha
  Plant response rating Common ragweed: 0
deadnettle; Rate 62 g/ha, 0 to 100 scale
  Plant response rating, Deadnettle: 30
deadnettle; Rate 125 g/ha, 0 to 100 scale
  Plant response rating, Deadnettle: 30
deadnettle; [4]
  Plant response rating, Deadnettle: 50
deadnettle; [5]
  Deadnettle plant response rating: 30
Littleseed canarygrass; [1]
  Plant response rating, LS canarygrass: 70
Littleseed canarygrass; Rate 250 g/ha
  LS canarygrass plant response rating (0 to 100 scale): 70
Littleseed canarygrass; [2]
  Plant response rating, LS canarygrass: 100
Green foxtail; Rate 62 g/ha, 0 to 100 scale
  Plant response rating, Green foxtail: 55
Green foxtail; Rate 125 g/ha, 0 to 100 scale
  Plant response rating, Green foxtail: 70
Green foxtail; [4]
  Plant response rating, Green foxtail: 75
Green foxtail; [5]
  Green foxtail plant response rating: 50
Winter barley; Rate 62 g/ha, 0 to 100 scale
  Plant response rating, Barley (winter): 5
Winter barley; Rate 125 g/ha, 0 to 100 scale
  Plant response rating, Barley (winter): 0
Winter barley; [4]
  Plant response rating, Barley (winter): 20
Winter barley; [5]
  Barley (winter) plant response rating: 0
Sugar beet; [1]
  Plant response rating, Sugar beet: 80
Sugar beet; Rate 250 g/ha
  Sugar beet plant response rating (0 to 100 scale): 60
Sugar beet; [2]
  Plant response rating, Sugar beet: 90
Large crabgrass; Rate 140 g/ha
  Plant response rating Large crabgrass: 0
Large crabgrass; Rate 280 g/ha
  Plant response rating Large crabgrass: 20
Large crabgrass; Rate 560 g/ha
  Plant response rating Large crabgrass: 70
Large crabgrass; Rate 1120 g/ha
  Plant response rating Large crabgrass: 85
chickweed; Rate 62 g/ha, 0 to 100 scale
  Plant response rating, Chickweed: 60
chickweed; Rate 125 g/ha, 0 to 100 scale
  Plant response rating, Chickweed: 10
chickweed; [4]
  Plant response rating, Chickweed: 50
chickweed; [5]
  Chickweed plant response rating: 20
Purple nutsedge; Rate 140 g/ha
  Plant response rating, Purple nutsedge: 0
Purple nutsedge; Rate 280 g/ha
  Plant response rating, Purple nutsedge: 0
Purple nutsedge; Rate 560 g/ha
  Plant response rating, Purple nutsedge: 0
Purple nutsedge; Rate 1120 g/ha
  Plant response rating, Purple nutsedge: 80
Spring wheat; Rate 62 g/ha, 0 to 100 scale
  Plant response rating, Spring Wheat: 5
Spring wheat; Rate 125 g/ha, 0 to 100 scale
  Plant response rating, Spring Wheat: 0
Spring wheat; [4]
  Plant response rating, Spring Wheat: 40
Spring wheat; [5]
  Spring Wheat plant response rating: 0
lambsquarters; Rate 140 g/ha
  Plant response rating, Lambsquarters: 0
lambsquarters; Rate 280 g/ha
  Plant response rating, Lambsquarters: 0
lambsquarters; Rate 1120 g/ha
  Plant response rating, Lambsquarters: 0
Annual bluegrass; [1]
  Plant response rating, Annual bluegras: 70
Annual bluegrass; Rate 250 g/ha
  Annual bluegras plant response rating (0 to 100 scale): 80
Annual bluegrass; [2]
  Plant response rating, Annual bluegras: 100
Downy brome; [1]
  Plant response rating, Downy brome: 85
Downy brome; Rate 250 g/ha
  Downy brome plant response rating (0 to 100 scale): 80
Downy brome; [2]
  Plant response rating, Downy brome: 100
Wild mustard; Rate 62 g/ha, 0 to 100 scale
  Plant response rating, Wild mustard: 30
Wild mustard; Rate 125 g/ha, 0 to 100 scale
  Plant response rating, Wild mustard: 0
Wild mustard; [4]
  Plant response rating, Wild mustard: 30
Wild mustard; [5]
  Wild mustard plant response rating: 0
Spring barley; Rate 62 g/ha, 0 to 100 scale
  Plant response rating, Spring Barley: 5
Spring barley; Rate 125 g/ha, 0 to 100 scale
  Plant response rating, Spring Barley: 0
Spring barley; [4]
  Plant response rating, Spring Barley: 20
Spring barley; [5]
  Spring Barley plant response rating: 0
